Experimental findings from a melting point compilation (Tetko et al.; mined from patent text by program, amines drawn as free bases though some values may be those of a salt) are described below.

In turn, `COc1nc(NC(=O)NS(=O)(=O)c2cccc3c2OS(=O)(=O)C(C)=C3)c(Cl)c(OC)n1` yielded a melting point of 236 to 237 °C.
In turn, `Cc1[nH]cnc1C(c1ccccc1)c1ccccc1` yielded a melting point of 198 to 204 °C.
In turn, `CCCCCCCCCCCn1ncnc1NC(=O)Nc1c(C(C)C)cccc1C(C)C` came in with a melting point of 146 to 148 °C.
The molecule `Cc1nnc(Cl)c(-c2c(F)cc(F)cc2F)c1-c1ccc2ccccc2c1` returned a melting point of 86 to 89 °C.
With `COc1ccc(-c2ncc(C(=O)O)s2)cc1OC1CCCC1` the figure was 170 to 171 °C.
Under `Clc1nc2ccccc2cc1C=C1CCCC1` stands 84 to 86 °C.
With `O=c1c2c(Cc3ccc(F)cc3)n[nH]c2c2cccnc2n1-c1cccc(OC(F)(F)F)c1` the figure was 226 to 228 °C; with `CCCn1nc2c(-c3ccccc3)cccc2c1-c1ccc(O)cc1`, 207 to 208 °C.
Consider `CCCCCNC(=O)N(C)c1ncc(-c2ccc(C[C@H](OCC)C(=O)O)cc2)s1`, for which the melting point turned out to be 114 °C.
Under `CCc1nn(Cc2cccnn2)c(C(N)=O)c1N` stands 171 to 174 °C; under `CSc1ccc(-c2nn(Cc3cccnc3)c(=O)cc2-c2ccc(F)cc2)cc1`, 160 to 161 °C.
Under `CCOC(=O)Cn1c(=O)c2cc(Cc3ncc[nH]3)ccc2n(Cc2ccc(Cl)c(Cl)c2)c1=O` stands 201 to 202 °C.
With `Cc1cc2c(cc1C1=NNC(=O)CC1)N(C)C(=O)C(C)O2` (stereo unspecified) the figure was 210 to 212 °C.
With `Nc1ccc(Cn2nc3ccccc3n2)cc1`, the melting point was in the range of 229 to 230 °C.
Consider `C1CNCCNCCCNCCNCCNC1`, for which the melting point was in the range of 49 to 51 °C.
With `Cc1nc2c(OCCCc3ccccc3)cccn2c1CC#N` the figure was 143 to 145 °C; with `CCOc1ccc(C2=NN(C3CCN(C(=O)CCCC(=O)O)CC3)C(=O)[C@@H]3CC=CC[C@H]23)cc1OCC`, 133 to 135 °C.
With `c1ccc2nc(CSc3nc4cccc5c4n3CCC5)ccc2c1` the figure was 125 to 126 °C; with `O=[N+]([O-])c1ccc(F)nc1Nc1ccc2c(c1)OCO2`, 161 to 162 °C; with `CNC(=O)C(Cc1ccc(OC)cc1)NC(=O)C(C)(CC(C)C)c1ccc(Cl)cc1S` (stereo unspecified), 174 to 178 °C.
With `COC(=O)c1cc(OC)c(C)c2c1Oc1c(C=O)c(O)cc(C)c1C(=O)O2` the figure was 264 to 265 °C; with `CC1CCN(CC(=O)N2c3ccccc3N(C)S(=O)(=O)c3ccccc32)CC1`, 159 to 160 °C; with `NN=Cc1ccc(CC(=O)NC2CCC3(CC2)CN(CC(=O)O)C(=O)O3)cc1` (stereo unspecified), 193 to 196 °C.
Turning to `CO[C@@H]1CC[C@H](C(=O)O)Cc2onc(-c3ccc(Cl)cc3)c21` (relative stereo), the melting point lay within 168 to 170 °C.
With `CCNC(=O)c1ccc(CCN2CC=C(c3c[nH]c(-c4ccc(F)cc4)c3-c3ccncc3)CC2)cc1` the figure was 228 to 230 °C.
Under `CCCCc1nc(=O)c2cc(C#C[Si](C)(C)C)c(F)cc2[nH]1` stands 192 °C.
With `Cn1ncc(C(=O)N2CCCC2)c1C(=O)Nc1ccn2nc(N3CCOCC3)nc2c1` the figure was 210 to 212 °C; with `O=c1c(NCCCBr)c(OC2CCCCC2)c1=O`, 68 to 70 °C; with `CCOC(=O)C(N)=Cc1ccc(OCC(O)CNC(C)(C)C)cc1` (stereo unspecified), 99 to 100 °C.
Regarding `CC(C)c1cc(Cl)cc(C(C)C)c1NC(=O)NS(=O)(=O)c1cccc(S(N)(=O)=O)c1`, the melting point fell in the range of 172 to 177 °C.
Under `O=C1c2cc(Br)ccc2COc2ccc(Br)cc21` stands 193 to 194 °C.
On to `O=C1c2ccccc2-c2c1c1ccccc1c(=O)n2CCCCCO`, for which the melting point was in the range of 144 to 146 °C.
With `COc1cc(OC)c2c(=O)[nH]c(-c3ccc(OCCO)c(-c4ccc(S(C)=O)cc4)n3)nc2c1` (stereo unspecified) the figure was 281 to 282 °C.
With `COc1ccc(C=C2C(=O)C3(C)CCC2C3(C)C)cc1OC` (stereo unspecified) the figure was 107 °C; with `O=c1cc(COC2CCCCO2)occ1OCCCCBr` (stereo unspecified), 71.5 °C; with `CCOc1ccc2c(c1)CC(=O)c1cc(C(C)C(N)=O)ccc1S2` (stereo unspecified), 128 to 130 °C.
With `COc1ccc(N2CCN(Cc3n[nH]c4c(I)cccc34)CC2)cc1` the figure was 185 to 186 °C; with `CCCCOc1ccc(OCc2ccccc2)c(C(=O)O)c1`, 79 to 82 °C; with `C=CCNc1ccnc2cn[nH]c12`, 230 to 232 °C.
Molecule `Nc1cc(=O)n(Cc2ccc(C(F)(F)F)c(Cl)c2)[nH]1` gave a melting point of 83 °C.
Under `O=[N+]([O-])c1ccccc1Nc1ccc(I)cc1` stands 171 to 172 °C.
The molecule `COc1cc2c(cc1C(=O)c1cc(C(C)(C)C)c(O)c(C(C)(C)C)c1)CCC2` returned a melting point of 154 to 156 °C.
Under `CN(C1c2cc(OCc3ccccc3)ccc2OC(C)(C)C1O)S(C)(=O)=O` (stereo unspecified) stands 162 to 164 °C; under `CC(C)([C@H](NC(=O)OCC1c2ccccc2-c2ccccc21)C(=O)O)S(C)(=O)=O`, 189 to 192 °C; under `CCOC(=O)c1n[nH]cc1[N+](=O)[O-]`, 128 to 130 °C.
Under `C[C@H]1CC[C@H]2C(C)(C)[C@@H](O)CC[C@]23Oc2c(c(O)cc4c2CN(C)C4=O)C[C@]13C` stands 205 to 210 °C; under `OC1C(COC2CC2)OC(n2cnc3c(NCc4cccc(I)c4)nc(Cl)nc32)C1O` (stereo unspecified), 94 to 96 °C; under `O=c1c2ccccc2c2cnn(-c3ccccc3)c2n1CCCl`, 157 to 160 °C.
`O=C(O)c1nc2ccc(Oc3ccccc3)cc2cc1OCc1ccccc1` yielded a melting point of 281 to 283 °C.
Under `CCCCCCCCCCCCCCOc1cccc(CC(=O)Nc2cccc(CO)c2)c1` stands 86 to 90 °C; under `Oc1cccc(OCCCCOc2cccc(O)c2)c1`, 103 to 106 °C; under `CC(=O)c1c(C)[nH]c(-c2ccccc2C)c1NCc1ccc(Cl)cc1`, 167 to 170 °C.
Under `Cc1cc(C)nc(NC(=O)C(N)Cc2ccccc2)c1` (stereo unspecified) stands 97 °C.
Under `CC1(C)CCOc2ccc(C(=O)c3ccc(C(=O)O)cc3)cc21` stands 199 °C; under `COC(=O)c1ccc(CCCCc2c(C)cc(C)cc2C)cc1`, 52 to 53 °C.
Molecule `CCOC(=O)C1=C(C)NN=C(C(=O)OC)C1c1cccnc1` (stereo unspecified) gave a melting point of 179 °C.
In turn, `CCn1ccc(-c2sc(NC(=O)c3ccncc3)nc2-c2ccco2)cc1=O` showed a melting point of 245 to 248 °C.
Under `Cc1ccc(OC2CCN(C(=O)CNc3ccc4[nH]c(=O)sc4c3)CC2)cc1` stands 189 to 191 °C; under `N#Cc1c(-c2cccc(C(=O)N3CCOCC3)c2)cc(-c2ccccc2O)nc1NC(=O)c1cccs1`, 253 to 254 °C.
With `CCCOc1ncc(NS(=O)(=O)CC(=O)O)cc1-c1nc2c(CCC)nn(C)c2c(=O)[nH]1` the figure was 267 to 270 °C; with `CC(C)(C)OC(=O)CC[C@H](NC(=O)c1ccc(C=Cc2cnc3nc(N)nc(N)c3c2)cc1)C(=O)OC(C)(C)C`, greater than 300 °C; with `CCOC(=O)c1cn(C2CC2)c2c(F)c(N3CC(OS(C)(=O)=O)C3)c(F)cc2c1=O`, 191 to 193 °C.
With `CCC1(C)CC(N(CCN(C(C)=O)C2CC(C)(CC)NC(C)(CC)C2C)C(C)=O)C(C)C(C)(CC)N1` (stereo unspecified) the figure was 173 to 175 °C.
Molecule `O=C1Nc2ccc(S(=O)(=O)N3CCCC3)cc2C1=O` showed a melting point of 200 to 201 °C.
For `COc1ccc(-c2cc(=O)n(CC(C)C)nc2-c2ccc(OC)c(F)c2)cc1F`, the melting point was 154 °C.
With `CON=C(C1=NOCCO1)c1ccccc1COc1ccn(-c2ccc(Cl)cc2)n1` the figure was 56 to 59 °C; with `CCCOc1ccc(CCCOc2ccc3c(c2)C=C(C(=O)Nc2ccc(CN(C)C4CCOCC4)cc2)CCS3(=O)=O)cc1`, 178 to 181 °C.
With `O=C(CCc1ccccc1)NC1CCC(=O)N2CCCC(C(=O)NC3CC(=O)OC3OCc3ccccc3)N2C1=O` (stereo unspecified) the figure was 92 to 94 °C.
With `CC(=O)Nc1cccc2c1CCN(C)C2` the figure was 138 to 139 °C.
Molecule `COc1cccc([C@H]2O[C@H](CC(=O)NCP(=O)(O)O)C(=O)N(CC(C)(C)C)c3ccc(Cl)cc32)c1OC` came in with a melting point of 152 to 155 °C.
With `CN(C)c1ccc(-c2ccnc(Nc3ccc4c(c3)OCCO4)c2)cc1` the figure was 154 to 156 °C; with `O=C(Cc1cc(C(F)(F)F)cc(C(F)(F)F)c1)N1CCN(C(=O)CNC2CCN(Cc3ccccc3)CC2)C(c2ccccc2)C1` (stereo unspecified), 49 to 52 °C.
As to `NS(=O)(=O)c1ccc(-c2[nH]c3ccccc3c2-c2ccc(Cl)cc2)cc1`, the melting point is 298 to 300 °C.
Under `C/C(Cl)=C/CCC(=O)C=P(c1ccccc1)(c1ccccc1)c1ccccc1` stands 109 to 113 °C.
In the case of `COc1nc(NCCc2ccc(F)cc2)nc(-c2ccc(OC)c(S(=O)(=O)NC3CC3)c2)n1`, the melting point lay within 200 to 201 °C.
`Cc1cc(NC(=O)c2ccccc2O)cc(Cl)c1O` displayed a melting point of 192 to 194 °C.
With `CC(C)Nc1cccnc1N1CCN(C(=O)c2cc3cc(NC(=O)N4CCN(C)CC4)ccc3[nH]2)CC1` the figure was 200 °C; with `CCN(CC)C(=O)c1ccc2ccccc2c1-c1ccsc1`, 71 to 73 °C.
With `CC1(C)C=NC(C(NC(c2ccccc2)(c2ccccc2)c2ccccc2)C(=O)O)S1` (stereo unspecified), the melting point fell in the range of 180 to 182 °C.
Under `N=C(N)NCCCCN[N+](=O)[O-]` stands 123 to 124 °C; under `C=CCc1cc(C=C2SC(=S)NC2=O)cc(CC=C)c1O`, 157 to 160 °C.
Under `CC(C)=CCCC(C)=CCCC(C)=Cc1ccc(C(=O)O)cc1` stands 92 to 92.5 °C; under `CN1CCCN(Cc2c(Cl)ccc(C(=O)C3=C(Sc4ccccc4)CCCC3=O)c2Cl)C1=O`, 140 °C; under `COc1cc2c(cc1OCc1ccccc1)CCN(Cc1ccccn1)C2`, 73 to 74 °C.
In turn, `CONC(=O)Nc1ccc(-c2sc3c(c2CNC(C)c2ccccc2)c(=O)n(-c2ccc(F)cn2)c(=O)n3Cc2c(F)cccc2F)cc1` (stereo unspecified) displayed a melting point of 128 to 130 °C.
Under `Nc1ccccc1C(=O)c1ccncc1` stands 153 to 161 °C.
